Experimental data reported in patent publication US6951881B2, “(1-substituted-indol-3-yl) alkylidenehydrazinecarboximidamide derivatives as 5-hydroxytryptamine-6 ligands” (Wyeth, priority 2002, dated 2005).
Where a name gives a salt, the structure may show the parent alone. Read-outs that look alike come from different tables or passages of the source.

Molecular target: T1, human cloned 5-HT6 receptors (Homo sapiens, UniProt P50406)
T1 construct: expressed in transfected cells; host or cells: HeLa cells
Type: binding
Conditions: for % Inhibition / inhibition at 1 µM: displacement of [3H]-LSD; for Ki: [3H]-LSD 3.0 nM, Hela cell membranes, read-out: 5-HT6 Binding Ki
Procedure: This operation is repeated.
The reaction is allowed to proceed in the dark for 120 min at room temperature, at which time, the bound ligand-receptor complex is filtered off on a 96 well unifilter with a Packard Filtermate® 196 Harvester. The bound complex caught on the filter disk is allowed to air dry and the radioactivity is measured in a Packard TopCount® equipped with six photomultiplier detectors, after the addition of 40.0 μl Microscint®-20 scintillant to each shallow well. The unifilter plate is heat-sealed and counted in a PackardTopCount® with a tritium efficiency of 31.0%.
Specific binding to the 5-HT6 receptor is defined as the total radioactivity bound less the amount bound in the presence of 10.0 μM unlabeled methiothepin. Binding in the presence of varying concentrations of test compound is expressed as a percentage of specific binding in the absence of test compound. The results are plotted as logit % bound versus log concentration of test compound. Nonlinear regression analysis of data points with a computer assisted program Prism® yields both the IC50 and the Ki values of test compounds with 95% confidence limits.
The amount of displacement by the test compound is given in percent (%) inhibition and is derived from the following equation: [formula] where B0 is the amount of CPM bound in the presence of the testing agent. NSB represents the CPM bound in the presence of a saturating concentration of a displacer and TB represents the total amount of CPM bound at zero (0) concentration of test compound.
Alternatively, a linear regression line of decline of data points is plotted, from which the IC50 value can be read off and the Ki value determined by solving the following equation: [formula] where L is the concentration of the radioactive ligand used and KD is the dissociation constant of the ligand for the receptor, both expressed in nM.

T1 sequence (P50406 whole entry): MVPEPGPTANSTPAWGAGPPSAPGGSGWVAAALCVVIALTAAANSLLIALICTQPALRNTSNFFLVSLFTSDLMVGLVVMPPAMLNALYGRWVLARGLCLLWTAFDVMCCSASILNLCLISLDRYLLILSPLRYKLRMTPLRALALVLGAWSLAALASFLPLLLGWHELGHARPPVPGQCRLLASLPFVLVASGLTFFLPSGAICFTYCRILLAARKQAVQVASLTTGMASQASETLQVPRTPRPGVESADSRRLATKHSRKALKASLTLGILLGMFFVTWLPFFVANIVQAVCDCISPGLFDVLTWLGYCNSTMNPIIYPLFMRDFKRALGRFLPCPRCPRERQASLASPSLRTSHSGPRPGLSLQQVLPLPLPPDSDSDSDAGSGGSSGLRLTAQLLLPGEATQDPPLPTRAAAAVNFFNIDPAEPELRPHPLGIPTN

Molecule | Ki [nM] | inhibition at 1 µM (test compound dose 1000 nM) [%] | further results
2-[3-(2-chloro-phenyl)-1-(1,2-diphenyl-1H-indol-3-yl)-allylidene]hydrazinecarboximidamide [Example 88] |  |  | % Inhibition (test compound dose 1000 nM): 37.5%
2-{[2-(3-thienyl)-1H-indol-3-yl]-ethylidene}hydrazinecarboximidamide [Example 139] |  |  | % Inhibition (test compound dose 100 nM): 60.1%
C/C(=N\NC(=N)N)c1c[nH]c2ccc(NS(=O)(=O)c3ccccc3)cc12 [Example 7, (Z)-2-{1-[5-[(Phenylsulfonyl)amino]-1H-indol-3yl]ethylidene}hydrazinecarboximidamide Hydrochloride] | 1 |  | 
C/C(=N\NC(=N)N)c1cn(C)c2ccc(NS(=O)(=O)c3ccccc3)cc12 [Example 8, (Z)-2-{-1-[1-methyl-5-[(phenylsulfonyl)amino]-1H-indol-3-yl]ethylidene}hydrazinecarboximidamide Hydrochloride] | 2 |  | 
CC(=NNC(=N)N)c1cn(C)c2ccc(NS(=O)(=O)c3ccc(N)cc3)cc12 [Example 10] | 4 | 98.7 | 
CC(=NNC(=N)N)c1cn(C)c2ccc(NS(=O)(=O)c3sc4ccc(Cl)cc4c3C)cc12 [Example 16] | 7 | 98.7 | 
COc1ccc(S(=O)(=O)Nc2ccc3[nH]cc(C(C)=NNC(=N)N)c3c2)cc1 [Example 19] | 1 | 97.4 | 
COc1ccc(S(=O)(=O)Nc2ccc3c(c2)c(C(C)=NNC(=N)N)cn3C)cc1 [Example 20] | 3 | 99 | 
COc1ccc(S(=O)(=O)Nc2ccc3c(c2)c(C(C)=NNC(=N)N)cn3C)cc1OC [Example 23] | 3 | 99.4 | 
CC(=NNC(=N)N)c1cn(C)c2ccc(NS(=O)(=O)c3ccccc3Br)cc12 [Example 25] | 1 | 99 | 
CC(=NNC(=N)N)c1cn(C)c2ccc(NS(=O)(=O)c3ccc(Cl)cc3)cc12 [Example 29] | 4 | 98.4 | 
[H]/N=C(/N)NN=C(C)c1c[nH]c2ccc(NS(=O)(=O)c3ccc(-c4ccccc4)cc3)cc12 [Example 35, (Z)-2-[1-[5-[(4-biphenylsulfonyl)amino]-1H-indol-3-yl]ethylidene]hydrazinecarboximidamide] |  | 96.4 | 
N=C(N)N/N=C/c1c(-c2ccccc2)[nH]c2ccccc12 [Example 42, 2-(2-Phenyl-1H-indol-3-ylmethylene)hydrazinecarboximidamide] |  | 82.1 | 
C/C(=N\NC(=N)N)c1c(-c2ccccc2)[nH]c2ccccc12 [Example 43, 2-[1-(2-Phenyl-1H-indol-3-yl)ethylidene]hydrazine-carboximidamide] |  | 93.3 | 
N=C(N)NN=Cc1c(-c2ccc(Cl)cc2)[nH]c2ccccc12 [Example 44, 2-[2-(4-chlorophenyl)-1H-indol-3-ylmethylene]hydrazinecarboximidamide] | 18 |  | 
Clc1ccc(-c2[nH]c3ccccc3c2C=NNC2=NCCCN2)cc1 [Example 45, N-[2-(4-chlorophenyl)-1H-indol-3-ylmethylene]-N′-(1,4,5,6-tetrahydropyrimidin-2-yl)hydrazine] |  | 68.5 | 
CN(N=Cc1c(-c2ccc(Cl)cc2)[nH]c2ccccc12)C1=NCCN1 [Example 46, N′-[2-(4-chlorophenyl)-1H-indol-3-ylmethylene]-N-(4,5-dihydro-1H-imidazol-2-yl)-N-methylhydrazine] | 10 | 96.5 | 
Clc1ccc(-c2[nH]c3ccccc3c2C=NNC2=NCCN2)cc1 [Example 47, N-[2-(4-chlorophenyl)-1H-indol-3-ylmethylene]-N′-(4,5-dihydro-1H-imidazol-2-yl)hydrazine] | 20.2 |  | 
N=C(N)NN=Cc1c(-c2ccc(F)c(Cl)c2)[nH]c2ccccc12 [Example 48, 2-[2-(3-chloro-4-fluoro-phenyl)-1H-indol-3-ylmethylene]hydrazinecarboximidamide] |  | 88.6 | 
CN(N=Cc1c(-c2ccc(F)c(Cl)c2)[nH]c2ccccc12)C1=NCCN1 [Example 49, N′-[2-(3-chloro-4-fluoro-phenyl)-1H-indol-3-ylmethylene]-N-(4,5-dihydro-1H-imidazol-2-yl)-N-methylhydrazine] |  | 93.8 | 
CN(N=Cc1c(-c2ccccc2)[nH]c2ccccc12)C1=NCCN1 [Example 50, N-(4,5-dihydro-1H-imidazol-2-yl)-N′-(2-phenyl-1H-indol-3-ylmethylene)-N-methylhydrazine] |  | 96.2 | 
CC(C)C(=NNC(=N)N)c1c(-c2ccc(Cl)cc2)[nH]c2ccccc12 [Example 57, 2-{[2-(4-chloro-phenyl)-1H-indol-3-yl]-2-methyl-propylidene}hydrazinecarboximidamide] |  |  | % Inhibition (test compound dose 1000 nM): 74.6%
CN(N=C(c1ccc(Cl)cc1)c1c(-c2ccccc2)[nH]c2ccccc12)C1=NCCN1 [Example 66, N′-[(4-chlorophenyl)-(2-phenyl-1H-indol-3-yl)-methylene]-N-(4,5,-dihydro-1H-imidazol-2-yl)-N-methylhydrazine] |  |  | % Inhibition (test compound dose 1000 nM): 18.1%
CN(N=C(c1ccc(Cl)cc1)c1c(-c2ccc(Cl)cc2)[nH]c2ccccc12)C1=NCCN1 [Example 67, N′-{(4-chlorophenyl)-[2-(4-chlorophenyl)-1H-indol-3-yl]-methylene}-N-(4,5,-dihydro-1H-imidazol-2-yl)-N-methylhydrazine] |  |  | % Inhibition (test compound dose 1000 nM): 35.2%

Second part, led by results:

Ki [nM] | inhibition at 1 µM (test compound dose 1000 nM) [%] | Molecule | further results
109 |  | N=C(N)NN=Cc1c(-c2ccc3ccccc3c2)[nH]c2ccccc12 [Example 51, 2-{[2-(naphthalen-2-yl)-1H-indol-3-yl]methylene}hydrazinecarboximidamide] | 
29 |  | N=C(N)NN=Cc1c(-c2ccc(F)cc2)[nH]c2ccccc12 [Example 52, 2-[2-(4-fluorophenyl)-1H-indol-3-ylmethylene]hydrazinecarboximidamide] | 
 | 33.7 | N=C(N)NN=C(Cc1ccc(Cl)cc1)c1c(-c2ccc(Cl)cc2)[nH]c2ccccc12 [Example 53, 2-{1-[2-(4-chloro-phenyl)-1H-indol-3-yl]-2-(4-chloro-phenyl)-ethylidene}hydrazinecarboximidamide] | 
 | 27 | N=C(N)NN=C(c1c(-c2ccccc2)[nH]c2ccccc12)C1CCCCC1 [Example 54, 2-[cyclohexyl-(2-phenyl-1H-indol-3-yl)-methylene]hydrazinecarboximidamide] | 
 | 28.5 | N=C(N)NN=C(c1c(-c2ccc(Cl)cc2)[nH]c2ccccc12)C1CCCCC1 [Example 55, 2-{[2-(4-chloro-phenyl)-1H-indol-3-yl]-cyclohexyl-methylene}hydrazinecarboximidamide] | 
 | 33.9 | N=C(N)NN=C(c1c(-c2ccc(F)c(Cl)c2)[nH]c2ccccc12)C1CCCCC1 [Example 56, 2-{[2-(3-chloro-4-fluoro-phenyl)-1H-indol-3-yl]-cyclohexyl-methylene}hydrazinecarboximidamide] | 
 | 24.4 | N=C(N)NN=C(Cc1ccccc1)c1c(-c2ccccc2)[nH]c2ccccc12 [Example 59, 2-[2-phenyl-1-(2-phenyl-1H-indol-3-yl)-ethylidene]hydrazinecarboximidamide] | 
 | 49.5 | N=C(N)NN=C(Cc1ccccc1)c1c(-c2ccc(Cl)cc2)[nH]c2ccccc12 [Example 60, 2-{1-[2-(4-chloro-phenyl)-1H-indol-3-yl]-2-phenyl-ethylidene}hydrazinecarboximidamide] | 
 | 83.9 | N=C(N)NN=C(Cc1ccccc1)c1c(-c2ccc(F)c(Cl)c2)[nH]c2ccccc12 [Example 61, 2-{1-[2-(3-chloro-4-fluoro-phenyl)-1H-indol-3-yl]-2-phenyl-ethylidene}hydrazinecarboximidamide] | 
 | 78.2 | CC(C)CC(=NNC(=N)N)c1c(-c2ccc(Cl)cc2)[nH]c2ccccc12 [Example 62, 2-{1-[2-(4-chloro-phenyl)-1H-indol-3-yl]-3-methyl-butylidene}hydrazinecarboximidamide] | 
 | 31.7 | N=C(N)NN=C(C=Cc1ccccc1Cl)c1c(-c2ccc(Cl)cc2)[nH]c2ccccc12 [Example 63, 2-{3-(2-chloro-phenyl)-1-[2-(4-chloro-phenyl)-1H-indol-3-yl]-allylidene}hydrazinecarboximidamide] | 
17 | 98.5 | CC(=NNC(=N)N)c1c(-c2ccc(Cl)cc2)[nH]c2ccccc12 [Example 64, 2-{1-[2-(4-chloro-phenyl)-1H-indol-3-yl]-ethylidene}hydrazinecarboximidamide] | 
 | 87.2 | CC(=NNC(=N)N)c1c(-c2ccc(F)c(Cl)c2)[nH]c2ccccc12 [Example 65, 2-{1-[2-(3-chloro-4-fluoro-phenyl)-1H-indol-3-yl]-ethylidene}hydrazinecarboximidamide] | 
 | 24.8 | CC(C)=CC(=NN(C)C1=NCCN1)c1c(-c2ccccc2)[nH]c2ccccc12 [Example 68, N-(4,5-dihydro-1H-imidazol-2-yl)-N-methyl-N′-[3-methyl-1-(2-phenyl-1H-indol-3-yl)-but-2-enylidene]hydrazine] | 
